Reference: paper PMC10888688 (International Journal of Molecular Sciences, 2024)
≈ marks a conversion by molar mass, not a printed value. Entries after “also recorded” stand apart in the source; their conditions may differ. Ends that are not written are not given here.

What was measured:
[1] = cited from earlier work
Excerpt: Host defense AMPs contain a high potential to combat drug or multidrug-resistant bacterial pathogens. AMPs are evolutionary conserved molecules found in all kingdoms of life that are effective in fending off infections as a part of innate immunity. The broad-spectrum activity of AMPs provides vital lead molecules for the next generation of antibiotics. In particular, the ability of AMPs to kill Gram-negative bacteria can be exploited for the designing of new antibiotics against drug-resistant strains.

[2] = system: Escherichia coli ATCC 25922; experiment: MIC, broth dilution, E. coli; type: cell-based; details: MH broth, overnight at 37 °C, peptide 0 to 16 μM, OD600, E. coli ATCC 25922
Procedure: (§1) Typically, an overnight bacterial culture was grown to the mid-log phase on a shaker at 183 rpm, at 37 °C, and then diluted in 2X Mueller Hinton (MH) broth (Millipore-Sigma^TM, Saint Louis, MO, USA) to achieve a final OD of 0.002. In a 96-well plate, 100 μL of the diluted bacterial culture along with 100 μL of peptide, concentrations ranging from 0 μM to 16 μM, was added and incubated overnight at 37 °C. Peptide concentrations were estimated by UV absorbance at a wavelength of 274 nm using a molar extinction coefficient (ε) of 1420 M^−1 cm^−1. Bacterial growth inhibition was determined by absorbance of 96 well plates at OD600 nm using a Cytation spectrophotometer (Agilent, Santa Clara, CA, USA).

[3] = molecular target: T1, LptAm of E. coli (Escherichia coli, UniProt P0ADV1); experiment: LptAm binding by ITC
T1 construct: Recombinant LptAm (residues 28–159) of E. coli; His-tag; made in house; host or cells: E. coli BL21

[4] = system: human kidney cell line HEK 293T; experiment: MTS cell survival assay, HEK 293T; type: cell-based; details: OD490, overnight at 37 °C/5% CO2, Figure 1
Procedure: (§2) Assays were conducted in complete media for cells Dulbecco’s Modified Eagle Medium (DMEM; Gibco; Waltham, MA USA, catalog number: 11995065) supplemented with 10% fetal bovine serum (FBS; Hyclone; Logan, UT, USA, catalog number: SV30160.03HI-1). […] All dose-response peptide dilutions were prepared in a U-bottom 96-well plate. 0.02 × 10^6 cells/50 µL of complete media were seeded overnight per well in a 96-well plate, and 105 µL of serum-free (sf) DMEM were added. Cells and peptides were incubated at 37 °C/5% CO2 overnight. Cell viability was checked using MTS assay and read after 30–45 min, and absorbance at OD490 was read using Tecan Infinite 200 Pro plate reader (Tecan, Mannedrof, Switzerland, CellTiter96®AQueous One Solution Cell Proliferation Assay (MTS); catalog number: G3580).

[5] = system: Acinetobacter baumannii ATCC BAA-1798; experiment: MIC, A. baumannii; type: cell-based; details: A. baumannii ATCC BAA-1798; broth dilution, overnight at 37 °C, peptide 0 to 16 μM
Procedure: as §1

[6] = system: liver cell line Hep G2; experiment: MTS cell survival assay, Hep G2; type: cell-based, human; details: OD490, overnight at 37 °C/5% CO2, Figure 1
Procedure: as §2

[7] = system: Enterococcus faecalis ATCC 29212; experiment: MIC, broth dilution, E. faecalis; type: cell-based; details: MH broth, overnight at 37 °C, peptide 0 to 16 μM, OD600, E. faecalis ATCC 29212
Procedure: as §1

[8] = system: Streptococcus pyogen ATCC 19615; experiment: MIC, broth dilution, S. pyogenes; type: cell-based, Streptococcus pyogenes; details: MH broth, overnight at 37 °C, peptide 0 to 16 μM, OD600, S. pyogenes ATCC 19615
Procedure: as §1

[9] = system: Gram-negative bacteria; details: cited from earlier work
Excerpt: Currently, viable antibiotics available to mitigate infections caused by drug-resistant Gram-negative bacteria are highly limited. Thanatin, a 21-residue-long insect-derived antimicrobial peptide (AMP), is a promising lead molecule for the potential development of novel antibiotics. […] As a mode of action, cationic thanatin efficiently permeabilizes the LPS-outer membrane and binds to the periplasmic protein LptAm to inhibit outer membrane biogenesis. […] In this work, we have investigated shorter variants of thanatin in terms of their antibacterial activity, atomic resol ... || Previous studies have shown that residues at the N-terminus of thanatin ([…]) can be dispensable for antimicrobial activity. By contrast, deletion of residues at the C-terminus of thanatin drastically reduces activity against Gram-negative bacteria. […] However, antibacterial activity was ...

[10] = system: Gram-negative bacteria; details: cited from earlier work; remark: listed apart in the source
Excerpt: (§3) Cationic AMPs are known ...

[11] = system: outer membrane of Gram-negative bacteria; details: binding with negatively charged LPS; cited from earlier work
Excerpt: as §3

[12] = system: LptAm; details: truncated functional variant of LptA; cited from earlier work
Excerpt: The 21-residue-long thanatin was isolated from the hemolymph of the bacteria-treated insect Podisus maculiventris. A single disulfide bond between residues Cys11 and […] stabilizes the β-hairpin structure of thanatin with a flexible N-terminus region. […] Cationic AMPs are known ...

[13] = system: periplasmic part of the β-taco domain of LptD; details: cited from earlier work
Excerpt: (§4) In this work, we have investigated shorter variants of thanatin in terms of their antibacterial activity, atomic resol ...

[14] = system: LptA and LptC complex; details: binding of LptA; cited from earlier work
Excerpt: as §4

polymyxin B
nephrotoxicity, in words [1]: nephrotoxicity

CC[C@H](C)[C@H](NC(=O)[C@@H](NC(=O)[C@@H]1CCCN1C(=O)[C@@H](N)C(C)C)[C@@H](C)CC)C(=O)N[C@@H](Cc1ccc(O)cc1)C(=O)N[C@H]1CSSC[C@@H](C(=O)N[C@@H](CCC(N)=O)C(=O)N[C@@H](CCCNC(=N)N)C(=O)N[C@@H](Cc2ccccc2)C(N)=O)NC(=O)[C@H](CCCCN)NC(=O)[C@@H](CCCCN)NC(=O)[C@H]([C@@H](C)O)NC(=O)[C@H](CCCNC(=N)N)NC(=O)[C@H](CCCNC(=N)N)NC(=O)[C@H](CC(N)=O)NC1=O [VF16]
MIC (EC) [2]: 0.5 µM (≈ 1.01 µg/mL)
Kd [3]: 0.25 µM
toxicity / cell survival, HEK 293T, in words [4]: did not show any detectable toxicity; also recorded: essentially non-toxic as both the cell lines demonstrate a high percentage of survival
MIC (AB) [5]: >16 µM
toxicity / cell survival, Hep G2, in words [6]: did not show any detectable toxicity; also recorded: essentially non-toxic as both the cell lines demonstrate a high percentage of survival
MIC (EF) [7]: >16 µM
MIC (SP) [8]: 1 µM (≈ 2.02 µg/mL)

thanatin analog with M21F substitution: thanatin analog with M21F substitution (GSKKPVPIIYCNRRTGKCQRF; ends and bridges not checked; cysteine pairing not given here; UniProt P55788 1-21, looked up, variant M21F)
antibacterial activity of M21F analog, in words ([9]; compared with thanatin): better antibacterial activity

GSKKPVPIIYCNRRTGKCQRM (disulfide) [thanatin, 21-residue-long insect-derived antimicrobial peptide isolated from Podisus maculiventris, single disulfide bond Cys11-Cys16]
effect in animal models of sepsis and infections, in words [10]: lowering of Gram-negative bacterial loads and also neutralization of toxicity of LPS
outer membrane permeabilization, in words [11]: efficient permeabilization of the outer membrane of Gram-negative bacteria
LptAm binding, in words [12]: high-affinity binding with LptAm
activity against Gram-negative pathogens, in words (abstract) ([9]; Enterobacter group, e.g., E. coli and K. pneumoniae, background statement, no reference given): extremely potent
activity against Gram-negative bacteria, in words ([9]; including drug-resistant strains of E. coli and K. pneumoniae): potent activity
LptD binding, in words [13]: binds to the periplasmic part of the β-taco domain of LptD
inhibition of LPS transport, in words [14]: disrupting LptA and LptC complex
